Source: patent publication US20240101521A1, “DIAMINOTRIAZINE COMPOUNDS” (BASF SE, priority 2021, published 2024)

Legend:
Experiment in all cases: greenhouse pre-emergence herbicidal test
Assay type in all cases: in vivo
Conditions in all cases: scale 0 to 100
Abutilon theophrasti = tested on: Abutilon theophrasti
From the text: (§1) The culture containers used were plastic flowerpots containing loamy sand with approximately 3.0% of humus as the substrate. The seeds of the test plants were sown separately for each species.
(§2) For the pre-emergence treatment, the active ingredients, which had been suspended or emulsified in water, were applied directly after sowing by means of finely distributing nozzles. The containers were irrigated gently to promote germination and growth and subsequently covered with transparent plastic hoods until the plants had rooted. This cover caused uniform germination of the test plants, unless this had been impaired by the active ingredients. For the post-emergence treatment, the test plants were first grown to a height of 3 to 15 cm, depending on the plant habit, and only then treated with the active ingredients which had been suspended or emulsified in water. For this purpose, the test plants were either sown directly and grown in the same containers, or they were first grown separately as seedlings and transplanted into the test containers a few days prior to treatment.
(§3) Depending on the species, the plants were kept at 10-25° C. or 20-35° C., respectively.
(§4) The test period extended over 2 to 4 weeks. During this time, the plants were tended, and their response to the individual treatments was evaluated.
(§5) Evaluation was carried out using a scale from 0 to 100. 100 means no emergence of the plants, or complete destruction of at least the aerial moieties, and 0 means no damage, or normal course of growth. A moderate herbicidal activity is given at values of at least 60, a good herbicidal activity is given at values of at least 70, and a very good herbicidal activity is given at values of at least 85.
(§6) The plants used in the greenhouse experiments were of the following species: […]

Echinochloa crus-galli = tested on: Echinochloa crus-galli
From the text: as §1, §2, §3, §4, §5, §6

Setaria faberi = tested on: Setaria faberi
From the text: as §1, §2, §3, §4, §5, §6

Amaranthus retroflexus = tested on: Amaranthus retroflexus
From the text: as §1, §2, §3, §4, §5, §6

SMILES	herbicidal activity (Abutilon theophrasti; pre-emergence, 62,5 g/ha)	herbicidal activity (Amaranthus retroflexus; pre-emergence, 62,5 g/ha)	herbicidal activity (Echinochloa crus-galli; pre-emergence, 62,5 g/ha)	herbicidal activity (Setaria faberi; pre-emergence, 62,5 g/ha)	other results
C#CCOc1c(Br)cc(Br)c(F)c1Nc1nc(N)nc(C(C)(C)F)n1 [Example 65]	–	–	–	–	herbicidal activity (Abutilon theophrasti; pre-emergence, 62 g/ha): 100%; herbicidal activity (Echinochloa crus-galli; pre-emergence, 62 g/ha): 100%; herbicidal activity (Setaria faberi; pre-emergence, 62 g/ha): 100%
CC#CCOc1c(Cl)cc(Cl)c(F)c1Nc1nc(N)nc(C(C)(C)F)n1 [Example 61]	–	–	–	–	herbicidal activity (Abutilon theophrasti; pre-emergence, 31 g/ha): 100%; herbicidal activity (Amaranthus retroflexus; pre-emergence, 31 g/ha): 100%; herbicidal activity (Echinochloa crus-galli; pre-emergence, 31 g/ha): 100%
COc1c(F)cc(C)c(F)c1Nc1nc(N)nc(C(C)(C)F)n1 [Example 32, N4-(2,5-difluoro-6-methoxy-3-methyl-phenyl)-6-(1-fluoro-1-methyl-ethyl)-1,3,5-triazine-2,4-diamine]	100%	100%	100%	–	–
COc1c(Br)cc(F)c(F)c1Nc1nc(N)nc(C2(F)CCCC2)n1 [Example 81]	–	–	–	–	herbicidal activity (Abutilon theophrasti; pre-emergence, 62 g/ha): 100%; herbicidal activity (Echinochloa crus-galli; pre-emergence, 62 g/ha): 100%; herbicidal activity (Setaria faberi; pre-emergence, 62 g/ha): 100%
C=CC(C)(F)c1nc(N)nc(Nc2c(F)c(F)cc(Cl)c2OC)n1 (stereo not drawn) [Example 122]	100%	100%	–	100%	–
CCOc1c(Br)cc(F)c(F)c1Nc1nc(N)nc(C(C)(C)F)n1 [Example 19]	100%	100%	100%	–	–
COc1c(Br)cc(F)c(F)c1Nc1nc(N)nc(C(C)F)n1 (stereo not drawn) [Example 120]	100%	100%	100%	–	–
COc1c(Br)cc(Br)c(F)c1Nc1nc(N)nc(C(C)(C)F)n1 [Example 8]	–	–	–	–	herbicidal activity (Abutilon theophrasti; pre-emergence, 125 g/ha): 100%; herbicidal activity (Echinochloa crus-galli; pre-emergence, 125 g/ha): 100%; herbicidal activity (Setaria faberi; pre-emergence, 125 g/ha): 100%
COc1c(Br)cc(F)c(F)c1Nc1nc(N)nc(C(C)(F)F)n1 [Example 50]	–	–	–	–	herbicidal activity (Abutilon theophrasti; pre-emergence, 31 g/ha): 80%; herbicidal activity (Amaranthus retroflexus; pre-emergence, 31 g/ha): 100%; herbicidal activity (Setaria faberi; pre-emergence, 31 g/ha): 100%
C#CCOc1c(Br)cc(F)c(F)c1Nc1nc(N)nc(C(C)(C)F)n1 [Example 17]	–	–	–	–	herbicidal activity (Abutilon theophrasti; pre-emergence, 250 g/ha): 100%; herbicidal activity (Amaranthus retroflexus; pre-emergence, 250 g/ha): 100%; herbicidal activity (Echinochloa crus-galli; pre-emergence, 250 g/ha): 100%
COc1c(Cl)c(F)c(F)c(F)c1Nc1nc(N)nc(C(C)(C)C)n1 [Example 162]	95%	–	95%	100%	–
COc1c(Cl)cc(F)c(F)c1Nc1nc(N)nc(C(C)(C)Cl)n1 [Example 37]	98%	100%	100%	–	–
COc1c(Cl)cc(F)c(F)c1Nc1nc(N)nc(C2(F)CCCCC2)n1 [Example 10]	–	–	–	–	herbicidal activity (Abutilon theophrasti; pre-emergence, 250 g/ha): 100%; herbicidal activity (Amaranthus retroflexus; pre-emergence, 250 g/ha): 100%; herbicidal activity (Setaria faberi; pre-emergence, 250 g/ha): 100%
COc1c(Br)cc(F)c(F)c1Nc1nc(N)nc(C2(F)CC2)n1 [Example 55]	100%	100%	100%	–	–
COc1c(Cl)cc(Cl)c(F)c1Nc1nc(N)nc(C(C)(C)F)n1 [Example 59]	100%	–	95%	100%	–
Nc1nc(Nc2c(F)c(F)cc(F)c2OCF)nc(C2(F)CCCC2)n1 [Example 107]	100%	–	100%	100%	–
CCC(C)(F)c1nc(N)nc(Nc2c(F)c(F)cc(Br)c2OC)n1 (stereo not drawn) [Example 117]	98%	100%	–	100%	–
COc1c(Cl)cc(F)c(F)c1Nc1nc(N)nc(C(C)(F)CBr)n1 (stereo not drawn) [Example 114]	100%	100%	–	100%	–
CC#CCOc1c(Br)cc(F)c(F)c1Nc1nc(N)nc(C2(F)CC2)n1 [Example 56]	90%	–	90%	100%	–
CC#CCOc1c(Br)cc(F)c(F)c1Nc1nc(N)nc(C2(F)CCCC2)n1 [Example 16]	–	–	–	–	herbicidal activity (Abutilon theophrasti; pre-emergence, 250 g/ha): 100%; herbicidal activity (Amaranthus retroflexus; pre-emergence, 250 g/ha): 100%; herbicidal activity (Echinochloa crus-galli; pre-emergence, 250 g/ha): 100%
CC#CCOc1c(Cl)cc(F)c(F)c1Nc1nc(N)nc(C(C)F)n1 (stereo not drawn) [Example 92]	–	–	–	–	herbicidal activity (Amaranthus retroflexus; pre-emergence, 62 g/ha): 100%; herbicidal activity (Echinochloa crus-galli; pre-emergence, 62 g/ha): 100%; herbicidal activity (Setaria faberi; pre-emergence, 62 g/ha): 100%
CC#CCOc1c(Cl)cc(F)c(F)c1Nc1nc(N)nc(C2(F)CCCC2)n1 [Example 58]	100%	–	100%	100%	–
